Experiment: gradient 5% acetonitrile 3 min, to 50% in 2 min, to 85% in 15 min, held 3 min, 100 µL/min
Conditions: column: Zorbax Extend-C18 2.1 x 50 mm; eluents: water / acetonitrile, 0.1% formic acid
Procedure, shortened: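 Pure standards were analyzed in mixtures of ~100 molecules using HPLC coupled to a quadrupole time-of-flight mass spectrometer, in both positive and negative ionization mode. Separation used a Zorbax Extend-C18 column (2.1 × 50 mm, 1.8 μm) at 100 μL/min, with water and acetonitrile each containing 0.1% formic acid. Dead and dwell volumes were 40 μL and 900 μL, and data were collected over 3 months. Retention time was read from computationally picked adduct peaks, each inspected manually.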

| SMILES | RP-LC retention time |
| --- | --- |
| O=C(NCc1ccccc1Cl)c1c[nH]c2ncccc12 | 708 s |
| CN(C)S(=O)(=O)c1ccc(C(=O)Oc2coc(CSc3nccn3C)cc2=O)cc1 | 566 s |
| CCOCC(=O)N1CCCC1CCc1ncc(C)n1C(C)C (centres undefined) | 574 s |
| Cc1ccc(-c2cc(C(=O)O)c3ccccc3n2)c(C)c1 | 821 s |
| CCCN(C(=O)c1ccccc1C)c1nc(-c2ccccc2)cs1 | 1320 s |
| COCC1CN(C(=O)CN2CCCC2=O)CCC1(F)F (centres undefined) | 598 s |
| Cc1ccc(Cl)cc1NCc1nnc2n1CCCCC2 | 739 s |
| CCc1nc2cc(-c3noc(-c4nn(C)c5ccccc45)n3)ccc2o1 | 1130 s |
| COc1ccc(C(O)CN2CCN(c3ccccc3C)CC2)cc1OC (centres undefined) | 654 s |
| COc1ccc(-c2nc(C)cc(C)c2CNC(=O)C2CCC2)cc1 | 584 s |
| Cc1nc(Nc2ncc3c(n2)CC(c2ccc(F)cc2)CC3=O)nc2ccccc12 (centres undefined) | 756 s |
| O=C(O)c1cc(-c2cccs2)n(C2CCS(=O)(=O)C2)n1 (centres undefined) | 630 s |
| CC(C)Cn1c(=O)c(N2CCN(C(=O)c3ccccc3Cl)CC2)nc2ccncc21 | 682 s |
| CN(c1ccccc1CNc1nc(Nc2ccc3c(c2)CC(=O)N3)ncc1C(F)(F)F)S(C)(=O)=O | 713 s |
| Cc1sc(-c2nnc(C3CC3)o2)cc1NC(=O)c1ccnn1C | 796 s |
| COc1ccc(-c2nc3cc(C)ccn3c2NC(=O)c2ccc([N+](=O)[O-])cc2)cc1 | 691 s |
| CS(=O)(=O)c1ccccc1-c1nnc(NC(=O)c2cccc(N3C(=O)CCC3=O)c2)o1 | 609 s |
| COc1ccccc1C(=O)N1c2ccccc2NC(=O)CC1C (centres undefined) | 639 s |
| COC(=O)c1ccccc1NC(=O)Cn1cccc(-c2nc(-c3ccc(Cl)cc3)no2)c1=O | 1070 s |
| Cc1csc(-c2ccc(N3CCN(C(=O)c4ccccc4Br)CC3)nc2)n1 | 884 s |
| CCc1nc(N)n(CC(=O)NCc2ccc(C)cc2)c(=O)c1C | 642 s |
| COc1ccc(-c2ccc(SCC(=O)Nc3cccc([N+](=O)[O-])c3)nn2)cc1OC | 793 s |
| Cc1nc(OCC(=O)Nc2ccc(Cl)c(Cl)c2)c2ccccc2n1 | 859 s |
| CCN1CCN(C(=O)Cc2c(C)nn(-c3nc(-c4ccc(C)cc4)cs3)c2C)CC1 | 730 s |
| Cc1nnc(NC(=O)c2ccc(S(=O)(=O)NCc3ccccn3)o2)s1 | 581 s |
| O=C(CN1CCN(Cc2ccccc2)C1=O)NC1CCN(Cc2ccccc2)CC1 | 599 s |
| COc1ccc(-c2nc(-c3ccc4ncn(C(C)C)c4c3)no2)cc1OC | 727 s |
| COc1ccc(-c2ncc3c(n2)CCN(C(=O)Nc2cc(Cl)ccc2C)C3)cc1 | 984 s |

| SMILES | RP-LC retention time |
| --- | --- |
| Clc1ccc(-c2nnc(-c3nc(NCc4cccnc4)c4ccccc4n3)o2)cc1 | 680 s |
| Cc1sc2ccn(CC(C)C)c(=O)c2c1C(=O)NCc1ccccc1F | 994 s |
| CCN1C(=O)CCc2cc(NS(=O)(=O)Cc3cccc(Cl)c3)ccc21 | 846 s |
| CCCN1C(=O)COc2ccc(-c3noc(-c4ccc(Cl)cc4OC)n3)cc21 | 1260 s |
| COc1cccc(-c2cc(C(=O)N3CCCC3c3c(C)noc3C)on2)c1 (centres undefined) | 872 s |
| CCNC(=O)C1CCCN(c2nc3ncn(CC(=O)NCc4ccc(Cl)cc4)c(=O)c3s2)C1 (centres undefined) | 696 s |
| CCOc1ccc(-c2noc(Cn3nc(-c4ccc(CC)cc4)ccc3=O)n2)cc1 | 597 s |
| COc1cccc(NC(=O)Nc2nccn(-c3ccc(F)c(F)c3)c2=O)c1 | 927 s |
| Clc1ccccc1-c1noc(-c2nc(-c3ccncc3)no2)n1 | 1130 s |
| CC(C)N1CCc2c(sc(NC(=O)c3ccc([N+](=O)[O-])s3)c2C(N)=O)C1 | 573 s |
| Cc1nn2c(CNC(=O)c3ccccn3)c(-c3ccccc3)nc2s1 | 796 s |
| O=C(NCC(=O)N1CCCc2ccccc21)c1cccc(Br)c1 | 822 s |
| CCc1ccccc1NC(=O)c1sc(-c2cn(C)c3ncccc23)nc1C | 971 s |
| CCC(C(=O)NCCc1ccccc1)n1cnc2nc3c(cc2c1=O)CCCC3 (centres undefined) | 785 s |
| COc1ccccc1NC(=O)N1CCC(n2cnc3c(Cl)cccc3c2=O)CC1 | 830 s |
| Cc1ccc(-c2nc3sc(N4CCCCC4)nn3c2NC(=O)c2ccnn2C)cc1 | 887 s |
| Cn1nc(-c2nc(-c3ccc(F)cc3)no2)c2c1CCN(C(=O)NC1CCCC1)C2 | 771 s |
| Cc1ccc(-c2nccn3cc(C(=O)O)nc23)cc1 | 696 s |
| COC(=O)C(Cc1c[nH]c2ccccc12)NC(=O)c1ccc(Br)cc1 (centres undefined) | 931 s |
| Cc1cccc(Nc2nc(-c3ccc(F)c(C)c3)cs2)n1 | 992 s |
| O=S(=O)(c1cccc(F)c1)N1CC(n2cc(COc3ccc(F)cc3)nn2)C1 | 923 s |
| Cn1cccc1-c1cc2n(n1)CCC(=O)N2CCCC(=O)NCCCc1ccccc1 | 833 s |
| CC(=O)Nc1ccc(C2(C(=O)NCc3ccc(C)cc3)CCC2)cc1 | 790 s |
| Cc1[nH]nc(-c2c(C)sc(C)c2S(=O)(=O)NCc2ccc(Br)cc2)c1C | 1130 s |
| Cc1nnc(-c2ccc3ccn(CC(=O)Nc4cccc(C#N)c4)c3c2)o1 | 798 s |
| COc1ccccc1-c1nc2nccc(-c3cc(OC)c(OC)c(OC)c3)n2n1 | 824 s |
| CCn1nccc1C(=O)N1CCC(n2c(-c3ccsc3)nc3cccnc32)C1 (centres undefined) | 643 s |

The next lines start with the values.

| RP-LC retention time | SMILES |
| --- | --- |
| 973 s | O=S(=O)(c1ccc(F)c(Cl)c1)N1CCC(OCc2noc(C3CCCO3)n2)CC1 (centres undefined) |
| 573 s | CCN(CC)CCNC(=O)C1CCN(c2nc3cccnc3s2)CC1 |
| 591 s | CCC(=O)NCc1nc2c(n1C)CN(S(=O)(=O)c1cccc(C(F)(F)F)c1)CC2 |
| 579 s | CCOC(=O)c1c(C)[nH]c(C(=O)N2CCCC(C(=O)NCCCN3CCN(CC)CC3)C2)c1C (centres undefined) |
| 819 s | Cc1cccc(C)c1NC(=O)Cn1c(=O)nc(N2CCC(C)CC2)c2ccccc21 |
| 973 s | Cc1ccc(NC(=O)Cn2nc(C(=O)N3CCCCC3)c3ccccc32)c(Br)c1 |
| 602 s | CCCNc1cc(N2CCC(CCC(=O)NC(C)C)CC2)ncn1 |
| 916 s | Cc1ccc(CNC(=O)CN2C(=O)CCc3cc(S(=O)(=O)N4CCCCC4C)ccc32)cc1 (centres undefined) |
| 778 s | CCN1CCCn2cc(S(=O)(=O)Nc3ccc(C)c(C)c3)cc2C1=O |
| 740 s | COCCC1(NC(=O)C2CC2)CCN(S(=O)(=O)c2c(C)noc2C)CC1 |
| 767 s | CSc1ccc(NC(=O)C2CCN(c3cnc4nc(C)c(C)nc4c3)CC2)cc1 |
| 756 s | CC1CCN(C(=O)c2cc(S(=O)(=O)N3CCCC(C(=O)Nc4nccs4)C3)c[nH]2)CC1 (centres undefined) |
| 605 s | Cc1ccc2nc(-c3cccc(S(=O)(=O)N4CCOCC4)c3)cn2c1 |
| 704 s | CO[C@H]1C(=O)N(C2CCN(S(=O)(=O)c3ccc4c(c3)CCC4)CC2)[C@H]1c1ccncc1 |
| 790 s | CCCc1noc(-c2cccnc2N2CCCN(Cc3cc(C)ccc3C)CC2)n1 |
| 816 s | Cc1ccc(S(=O)(=O)N2CC(F)(F)C[C@H]2CN2CCc3ccccc3C2)c(C)c1 |
| 1130 s | CC(C)(C)c1ccc(S(=O)(=O)N2CCC(C(=O)NCc3csc(-c4ccccc4)n3)CC2)cc1 |

| RP-LC retention time | SMILES |
| --- | --- |
| 598 s | O=C(C1CCOCC1)N1CCC(Oc2nccnc2N2CCOCC2)C1 (centres undefined) |
| 715 s | CCOC(=O)C1CCN(C(=O)Cc2c(C(=O)O)c(C)cn2CC)CC1 |
| 720 s | COc1ccc(C)cc1NC(=O)N1CCC(c2cc(N)on2)CC1 |
| 586 s | Cn1cnc2cc(CNC(=O)C3CCCC3)ccc21 |
| 815 s | COC[C@@H]1CN(C(=O)c2cc(C)oc2C)C[C@H]1c1nc(C2CC2)no1 |
| 784 s | CCOc1ccccc1NC(=O)C1CCCN1S(=O)(=O)c1cc2c(cc1C)NC(=O)C(C)O2 (centres undefined) |
| 880 s | CCC(=O)N(C1CCOCC1)C1CCN(S(=O)(=O)c2ccc(C)cc2C)CC1 |
| 603 s | CC(C)(C)C(=O)Nc1ccc2nc(N3CCN(CC(=O)N4CCCCCC4)CC3)cc(C(=O)O)c2c1 |
| 826 s | COc1ccc(NS(=O)(=O)c2cc3c(s2)CCN(C(=O)C2CC2)C3)cc1Cl |
| 841 s | CC1CCC(NC(=O)C2CCN(c3cnn(Cc4ccccc4)c(=O)c3)CC2)CC1 (centres undefined) |
| 658 s | O=C(c1nnc(-c2ccc(S(=O)(=O)N3CCCC3)cc2)o1)N1CCN(C2CCCCC2)CC1 |
| 586 s | CCCc1cc(N2CCN(C(=O)C3CC3)CC2)nc2nncn12 |
| 716 s | COc1ccccc1N1CCN(C(=O)C2CCN(S(=O)(=O)c3cn(C(C)C)cn3)CC2)CC1 |
| 584 s | COc1ccc(Cl)cc1S(=O)(=O)N1CCC(CN2CCCCC2)CC1 |
| 850 s | CCOC(=O)c1[nH]c(C)c(CCC(=O)N2CCC(C(=O)NCc3ccc(OC(C)C)cc3)CC2)c1C |
| 962 s | CCc1nc(-c2csc(S(=O)(=O)N3CCC(C(=O)Nc4ccc(F)cc4)CC3)c2)no1 |
| 661 s | CC1CCN(C2=NCCN2C(=O)c2ccc(F)cc2)CC1 |
